Assay results from patent US8501770B2 (ArQule, Inc., priority 2009, dated 2013).

Target: Full-length inactive AKT1 (Homo sapiens, UniProt P31749)
Experiment: Inactive Akt Alpha Screen Assay
Format: biochemical
Settings: values not marked with "*"; read-out: Akt1 IC50, (AlphaScreen)
Method: AKT1 activity was assayed using the GSK3-derived biotinylated peptide substrate, crosstide (biotin-[…]), and AlphaScreen™ (Amplified Luminescent Proximity Homogeneous Assay) technology. AKT1 activation was achieved by the addition of the activating kinases PDK1 and MAPKAPK2, lipid vesicles, and ATP. The extent of peptide phosphorylation was determined using a phospho-AKT substrate antibody and acceptor beads conjugated to Protein A and donor beads conjugated to streptavidin that bind to the biotin on the peptide. Excitation of the donor beads converted ambient oxygen to excited singlet oxygen which, when in close proximity to acceptor beads, reacted with acceptor beads resulting in signal amplification.
Assay plates were incubated for 90 minutes at room temperature in the dark, and the plates were read on a Perkin Elmer Envision Multilabel plate reader (excitation wavelength: […], emission wavelength: 570 nm).

Sequence of Full-length inactive AKT1 (P31749 whole entry): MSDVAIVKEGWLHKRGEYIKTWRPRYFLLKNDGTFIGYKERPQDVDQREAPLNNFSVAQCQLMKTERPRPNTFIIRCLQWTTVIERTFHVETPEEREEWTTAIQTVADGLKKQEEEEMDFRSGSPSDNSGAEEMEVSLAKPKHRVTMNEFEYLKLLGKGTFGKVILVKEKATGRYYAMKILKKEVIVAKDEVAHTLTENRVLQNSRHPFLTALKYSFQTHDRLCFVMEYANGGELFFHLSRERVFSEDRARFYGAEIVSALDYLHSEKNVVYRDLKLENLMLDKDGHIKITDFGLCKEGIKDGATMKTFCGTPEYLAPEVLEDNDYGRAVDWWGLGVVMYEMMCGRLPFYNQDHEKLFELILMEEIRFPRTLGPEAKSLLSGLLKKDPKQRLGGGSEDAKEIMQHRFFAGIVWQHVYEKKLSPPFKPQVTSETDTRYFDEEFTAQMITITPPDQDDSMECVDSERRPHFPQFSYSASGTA

| Compound | IC50 |
| --- | --- |
| COc1ccc(Nc2ccc3nc(-c4cccnc4N)n(-c4ccc(CNC(=O)c5ccccc5)cc4)c3n2)cc1 [Example 175] | 600 nM |
| COc1ccc(NC(=O)NCc2ccc(-n3c(-c4cccnc4N)nc4cc(F)cnc43)cc2)cc1 [Example 176, 1-{4-[2-(2-aminopyridin-3-yl)-6-fluoro-3H-imidazo[4,5-b]pyridin-3-yl]benzyl}-3-(4-methoxyphenyl)urea] | 1200 nM |
| COc1ccc(S(=O)(=O)NCc2ccc(-n3c(-c4cccnc4N)nc4cc(Br)cnc43)cc2)cc1 [Example 177, N-{4-[2-(2-aminopyridin-3-yl)-6-bromo-3H-imidazo[4,5-b]pyridin-3-yl]benzyl}-4-methoxybenzenesulfonamide] | 2100 nM |
| Cc1ccnc(NC(=O)c2ccc(-n3c(-c4cccnc4N)nc4cccnc43)cc2)c1 [Example 179, 4-[2-(2-aminopyridin-3-yl)-3H-imidazo[4,5-b]pyridin-3-yl]-N-(4-methylpyridin-2-yl)benzamide] | 530 nM |
| Cc1ccc2cc(NC(=O)c3ccc(-n4c(-c5cccnc5N)nc5cccnc54)cc3)ccc2n1 [Example 180, 4-[2-(2-aminopyridin-3-yl)-3H-imidazo[4,5-b]pyridin-3-yl]-N-(2-methylquinolin-6-yl)benzamide] | 590 nM |
| CC(=O)Nc1ccc(NC(=O)c2ccc(-n3c(-c4cccnc4N)nc4cccnc43)cc2)cc1 [Example 181, N-[4-(acetylamino)phenyl]-4-[2-(2-aminopyridin-3-yl)-3H-imidazo[4,5-b]pyridin-3-yl]benzamide] | 840 nM |
| Nc1ncccc1-c1nc2cccnc2n1-c1ccc(C(=O)Nc2ccc3c(c2)C(=O)OC3)cc1 [Example 182, 4-[2-(2-aminopyridin-3-yl)-3H-imidazo[4,5-b]pyridin-3-yl]-N-(3-oxo-1,3-dihydro-2-benzofuran-5-yl)benzamide] | 1100 nM |
| N#Cc1cccc(NC(=O)c2ccc(-n3c(-c4cccnc4N)nc4cccnc43)cc2)c1 [Example 183, 4-[2-(2-aminopyridin-3-yl)-3H-imidazo[4,5-b]pyridin-3-yl]-N-(3-cyanophenyl)benzamide] | 1500 nM |
| COc1cccc(NC(=O)c2ccc(-n3c(-c4cccnc4N)nc4cccnc43)cc2)c1 [Example 184, 4-[2-(2-aminopyridin-3-yl)-3H-imidazo[4,5-b]pyridin-3-yl]-N-(3-methoxyphenyl)benzamide] | 1900 nM |
| COc1ccc(NC(=O)c2ccc(-n3c(-c4cccnc4N)nc4cccnc43)cc2)cc1F [Example 185, 4-[2-(2-aminopyridin-3-yl)-3H-imidazo[4,5-b]pyridin-3-yl]-N-(3-fluoro-4-methoxyphenyl)benzamide] | 2500 nM |
| Cc1ccc(NC(=O)c2ccc(-n3c(-c4cccnc4N)nc4cccnc43)cc2)cc1 [Example 186, 4-[2-(2-aminopyridin-3-yl)-3H-imidazo[4,5-b]pyridin-3-yl]-N-(4-methylphenyl)benzamide] | 2500 nM |
| Nc1ncccc1-c1nc2cc(C(F)(F)F)cnc2n1-c1ccc(CNC(=O)c2ccc(Br)cc2)cc1 [Example 187, N-{4-[2-(2-aminopyridin-3-yl)-6-(trifluoromethyl)-3H-imidazo[4,5-b]pyridin-3-yl]benzyl}-4-bromobenzamide] | 2100 nM |
| Nc1ncccc1-c1nc2cc(C(F)(F)F)cnc2n1-c1ccc(CNC(=O)c2cccc(F)c2)cc1 [Example 188, N-{4-[2-(2-aminopyridin-3-yl)-6-(trifluoromethyl)-3H-imidazo[4,5-b]pyridin-3-yl]benzyl}-3-fluorobenzamide] | 360 nM |
| Nc1ncccc1-c1nc2ccc(N3CCCCC3)nc2n1-c1ccc(CNC(=O)c2ccc(Br)cc2)cc1 [Example 191, N-(4-(2-(2-aminopyridin-3-yl)-5-(piperidin-1-yl)-3H-imidazo[4,5-b]pyridin-3-yl)benzyl)-4-bromobenzamide] | 1100 nM |
| Cc1ccnc2c1nc(-c1cccnc1N)n2-c1ccc(CNC(=O)c2ccccc2)cc1 [Example 210, N-(4-(2-(2-aminopyridin-3-yl)-7-methyl-3H-imidazo[4,5-b]pyridin-3-yl)benzyl)benzamide] | 210 nM |

These reach a lower IC50. Values come first.

| IC50 | Compound |
| --- | --- |
| 110 nM | Cc1ccnc2c1nc(-c1cccnc1N)n2-c1ccc(CNC(=O)c2cccc(F)c2)cc1 [Example 190, N-(4-(2-(2-aminopyridin-3-yl)-7-methyl-3H-imidazo[4,5-b]pyridin-3-yl)benzyl)-3-fluorobenzamide] |
| 200 nM | Nc1ncccc1-c1nc2ccc(N3CCCCC3)nc2n1-c1ccc(CNC(=O)c2ccccc2)cc1 [Example 192, N-(4-(2-(2-aminopyridin-3-yl)-5-(piperidin-1-yl)-3H-imidazo[4,5-b]pyridin-3-yl)benzyl)benzamide] |
| 62 nM | CC(=O)Nc1ccc(NC(=O)Cc2ccc(-n3c(-c4cccnc4N)nc4cc(C)cnc43)cc2)cc1 [Example 193, N-(4-acetamidophenyl)-2-(4-(2-(2-aminopyridin-3-yl)-6-methyl-3H-imidazo[4,5-b]pyridin-3-yl)phenyl)acetamide] |
| 47 nM | Cc1cnc2c(c1)nc(-c1cccnc1N)n2-c1ccc(CC(=O)Nc2ccc3nc(C)ccc3c2)cc1 [Example 194, 2-(4-(2-(2-aminopyridin-3-yl)-6-methyl-3H-imidazo[4,5-b]pyridin-3-yl)phenyl)-N-(2-methylquinolin-6-yl)acetamide] |
| 76 nM | Cc1cnc2c(c1)nc(-c1cccnc1N)n2-c1ccc(CC(=O)Nc2ccccc2)cc1 [Example 195, 2-(4-(2-(2-aminopyridin-3-yl)-6-methyl-3H-imidazo[4,5-b]pyridin-3-yl)phenyl)-N-phenylacetamide] |
| 140 nM | CS(=O)(=O)NCc1ccc(-n2c(-c3cccnc3N)nc3cc(-c4cccnc4)cnc32)cc1 [Example 196, N-(4-(2-(2-aminopyridin-3-yl)-6-(pyridin-3-yl)-3H-imidazo[4,5-b]pyridin-3-yl)benzyl)methanesulfonamide] |
| 47 nM | CC(=O)Nc1ccc(-c2cnc3c(c2)nc(-c2cccnc2N)n3-c2ccc(CNC(=O)c3ccccc3)cc2)cc1 [Example 197, N-(4-(6-(4-acetamidophenyl)-2-(2-aminopyridin-3-yl)-3H-imidazo[4,5-b]pyridin-3-yl)benzyl)benzamide] |
| 61 nM | Nc1ncccc1-c1nc2ccc(Cl)nc2n1-c1ccc(CNC(=O)c2ccccc2)cc1 [Example 198, N-(4-(2-(2-aminopyridin-3-yl)-5-chloro-3H-imidazo[4,5-b]pyridin-3-yl)benzyl)benzamide] |
| 200 nM | Nc1ncccc1-c1nc2cc(C(F)(F)F)cnc2n1-c1ccc(CNC(=O)c2ccccc2)cc1 [Example 199, N-(4-(2-(2-aminopyridin-3-yl)-6-(trifluoromethyl)-3H-imidazo[4,5-b]pyridin-3-yl)benzyl)benzamide] |
| 74 nM | Nc1ncccc1-c1nc2cc(-c3cccnc3)cnc2n1-c1ccc(CNS(=O)(=O)c2ccccc2)cc1 [Example 200, N-(4-(2-(2-aminopyridin-3-yl)-6-(pyridin-3-yl)-3H-imidazo[4,5-b]pyridin-3-yl)benzyl)benzenesulfonamide] |
| 32 nM | Nc1ncccc1-c1nc2ccc(-c3cccnc3)nc2n1-c1ccc(CNC(=O)c2ccccc2)cc1 [Example 201, N-(4-(2-(2-aminopyridin-3-yl)-5-(pyridin-3-yl)-3H-imidazo[4,5-b]pyridin-3-yl)benzyl)benzamide] |
| 27 nM | Nc1ncccc1-c1nc2ccc(-c3ccccc3)nc2n1-c1ccc(CNC(=O)c2ccccc2)cc1 [Example 202, N-(4-(2-(2-aminopyridin-3-yl)-5-phenyl-3H-imidazo[4,5-b]pyridin-3-yl)benzyl)benzamide] |
| 81 nM | Nc1ncccc1-c1nc2ccc(Cl)nc2n1-c1ccc(CNC(=O)c2cccc(F)c2)cc1 [Example 203, N-(4-(2-(2-aminopyridin-3-yl)-5-chloro-3H-imidazo[4,5-b]pyridin-3-yl)benzyl)-3-fluorobenzamide] |
| 7.3 nM | CC(=O)Nc1cccc(-c2ccc3nc(-c4cccnc4N)n(-c4ccc(CNC(=O)c5cccc(F)c5)cc4)c3n2)c1 [Example 204, N-(4-(5-(3-acetamidophenyl)-2-(2-aminopyridin-3-yl)-3H-imidazo[4,5-b]pyridin-3-yl)benzyl)-3-fluorobenzamide] |
| 59 nM | Nc1ncccc1-c1nc2cc(-c3cccnc3)cnc2n1-c1ccc(CNS(=O)(=O)C2CC2)cc1 [Example 205, N-(4-(2-(2-aminopyridin-3-yl)-6-(pyridin-3-yl)-3H-imidazo[4,5-b]pyridin-3-yl)benzyl)cyclopropanesulfonamide] |
| 130 nM | COc1ccc(S(=O)(=O)NCc2ccc(-n3c(-c4cccnc4N)nc4cc(-c5cccnc5)cnc43)cc2)cc1 [Example 206, N-(4-(2-(2-aminopyridin-3-yl)-6-(pyridin-3-yl)-3H-imidazo[4,5-b]pyridin-3-yl)benzyl)-4-methoxybenzenesulfonamide] |
| 60 nM | Nc1ncccc1-c1nc2cc(-c3cccnc3)cnc2n1-c1ccc(CNS(=O)(=O)c2ccc(Cl)cc2)cc1 [Example 207, N-(4-(2-(2-aminopyridin-3-yl)-6-(pyridin-3-yl)-3H-imidazo[4,5-b]pyridin-3-yl)benzyl)-4-chlorobenzenesulfonamide] |
| 180 nM | CC(C)(C)OC(=O)NCc1ccc(-n2c(-c3cccnc3N)nc3ccc(-c4ccncc4)nc32)cc1 [Example 208, tert-butyl 4-(2-(2-aminopyridin-3-yl)-5-(pyridin-4-yl)-3H-imidazo[4,5-b]pyridin-3-yl)benzylcarbamate] |
| 61 nM | Cc1cnc2c(c1)nc(-c1cccnc1N)n2-c1ccc(CNC(=O)c2cccc(N(C)C)c2)cc1 [Example 211, N-(4-(2-(2-aminopyridin-3-yl)-6-methyl-3H-imidazo[4,5-b]pyridin-3-yl)benzyl)-3-(dimethylamino)benzamide] |
